Experimental data from PMC7766656, “Evaluation of the In Vitro Cytotoxic Activity of Caffeic Acid Derivatives and Liposomal Formulation against Pancreatic Cancer Cell Lines” (Materials, 2020).

How the values were obtained:
[1] = system: AsPC1 pancreatic cancer cells; experiment: MTT cytotoxicity assay, AsPC1 cells, 72 h; type: cell-based, human; settings: for IC50: Homo sapiens, ASPC1, free compound in DMSO, MTT, 72 h; for AsPC1 SI: selectivity index = IC50 of NHDF/IC50 of AsPC1, free compound
Protocol: (§1) In vitro cell culture procedures were performed under aseptic conditions and cultures were maintained in an Innova CO-180 incubator (New Brunswick Scientific, Edison, NJ, USA). Pancreatic cancer cells, namely, BxPC-3 (primary pancreatic tumor) and AsPC-1 (from ascites of a patient with pancreatic cancer) cells, were cultured in RPMI-1640 medium supplemented with 10% heat inactivated fetal bovine serum (FBS), GlutaMAX™ and antibiotic-antimycotic. NHDF cells were cultured in alpha-MEM medium supplemented with 10% heat-inactivated FBS, GlutaMAX™ and antibiotic-antimycotic. Culture was carried out at 37 °C in a humidified atmosphere containing 5% CO2.
(§2) The effect of CA and its derivatives on cell viability was determined using a quantitative colorimetric MTT assay adapted from Mosmann. Cells were seeded in 96-well plates (5 × 10^3/well), in appropriate complete cell culture medium, for 24 h. The cells were treated with caffeic acid derivatives (in the range of 18.75–150 μM), DMSO (an equivalent volume of DMSO was used as a negative control, maximal concentration was 0.4% v/v) or liposomal formulations for 72 h. The medium containing tested chemicals was removed and MTT solution (working solution: stock 0.5 mg/mL was 10 times diluted in medium) was added to the wells, and the plates were incubated for a further 3 h. Subsequently, the MTT solution was replaced with DMSO (50 μL/well) to dissolve the purple formazan crystals. Absorbance was measured at 560 nm with a reference wavelength of 670 nm on an Asys UVM 340 Microplate Reader (Cambridge, UK). Results were expressed as the percentage of surviving cells, with respect to the control (the untreated cells) calculated as: Cell Viability (%) = (AT/AC) × 100(2) where: • AT = Absorbance of the treatment well (treated cells); • AC = Absorbance of the control well (not treated cells).
(§3) IC50 values were calculated using GraphPad Prism for Windows (GraphPad Software, La Jolla, CA, USA). The degree of selectivity of the CA derivatives against pancreatic cancer cells was expressed by the selectivity index (SI) where: SI = IC50 normal cells/IC50 cancer cells(3)
(§4) The purpose of this study was to obtain a preliminary insight into the anticancer activity of a series of caffeic acid derivatives. In order to determine the in vitro cytotoxicity of the resynthesized compounds, the activity of CA and twelve derivatives (Table 1), were screened against two human PC cell lines, BxPC3 and AsPC1, derived from primary and metastatic tumors, respectively. Since we were also interested in evaluating the degree of selectivity of the synthetized derivatives, we decided to use normal human dermal fibroblasts as control, healthy, cells. This made it possible to determine the specificity of the tested substances, in terms of their selectivity index towards pancreatic cancer cells. The cytotoxicity of the examined compounds was estimated using the classic MTT assay, which is based on the detection of the activity of oxidoreductive enzymes (mainly mitochondrial succinate dehydrogenase), which are present only in living, metabolically active cells. During the experiments, cells were incubated for 72 h in the presence of increasing concentrations of CA and the series of CA derivatives, in the range of 18.75–150 μM. […] Untreated cells were tested as the control group.

[2] = system: BxPC3 pancreatic cancer cells; experiment: MTT cytotoxicity assay, BxPC3 cells, 72 h; type: cell-based, human; settings: for IC50: Homo sapiens, BXPC-3, free compound in DMSO, MTT, 72 h; for BxPC3 SI: selectivity index = IC50 of NHDF/IC50 of BxPC3, free compound
Protocol: as §1, §2, §3, §4

[3] = system: NHDF (normal human dermal fibroblasts); experiment: MTT cytotoxicity assay, NHDF control cells, 72 h; type: cell-based; settings: free compound in DMSO
Protocol: as §1, §2, §3, §4

[4] = system: MIAPACa-2 pancreatic cancer cell line; set-up: method as in PMID 26373299; settings: 25 μg/mL (87 μM), 48 h incubation; cited from earlier work
[5] = system: PANC-1 pancreatic cancer cell line; set-up: method as in PMID 26373299; settings: 25 μg/mL (87 μM), 48 h incubation; cited from earlier work
[6] = system: BxPC3 cells; set-up: method as in PMID 18824880; settings: 10 μg/mL (35 μM); cited from earlier work
[7] = Compound encapsulation efficiency (EE) in liposomes; type: physicochemical; settings: SPC:DSPE-PEG2000 95:5 mol/mol liposomes
Protocol: Caffeic acid derivatives encapsulated liposomes were prepared using the dry lipid film and extrusion method. A 1 mL solution of 10 mg of total lipids in chloroform (SPC:DSPE-PEG2000 95:5 mol/mol) were mixed with 1 mg of caffeic acid esters in methanol. Subsequently, solvents were removed from the samples via evaporation under a stream of nitrogen-gas to form a homogeneous lipid film on the flask wall and dried for 2 h at low pressure using a Savant Modulyo lyophilizer (Thermo Fisher Scientific, Waltham, MA, USA). Then, the lipid film was suspended by addition of 1 mL of sterile normal saline (0.9% NaCl), with mixing, until it was completely hydrated. […]
The lipid concentration was determined by the Stewart assay. The amount of (7) was determined spectrophotometrically at 290 nm and was calculated from the appropriate calibration curve according to the method described previously:EE (%) = CAf(mg/mL)/Lf(mg/mL)/CAi(mg/mL)/Li(mg/mL) × 100(1) where CAi(mg/mL)/Li(mg/mL) represents the (caffeic acid derivate)-to-lipid ratio at the point when the compound was mixed with the liposomes, and CAf(mg/mL)/Lf(mg/mL) is the final (caffeic acid derivate)-to-lipid ratio of the liposomes.

Encapsulation efficiency [7] [%]	SMILES	IC50 [1] [µM]	IC50 [2] [µM]	IC50 [3] [µM]	AsPC1 SI [1]	BxPC3 SI [2]	Reduction of proliferation rate [4] [%]	Reduction of proliferation rate [5] [%]	Inhibition [6] [%]
	COC(=O)/C=C/c1ccc(O)c(O)c1O [(5)]	42.5 ± 3.57	46.6 ± 3.47	98.8 ± 9.56					
	CC(=O)/C=C/c1cccc(O)c1 [(8)]	19.2 ± 0.72	30.5 ± 4.55	79.7 ± 6.3	4.14	2.61			
	CC(=O)/C=C/c1ccc(O)cc1 [(9)]	25.6 ± 2.17	28.1 ± 3.36	59.2 ± 11.6	2.31	2.11			
	CC(=O)/C=C/c1ccc(O)cc1O [(10)]	35.3 ± 1.28	34.1 ± 1.74	54.6 ± 2.25	1.54	1.60			
	CC(=O)/C=C/c1ccc(O)c(O)c1O [(11), 4-(2’, 3’, 4’-trihydroxyphenyl)-3 (E)-buten-2-one]	18.4 ± 0.74	21.7 ± 1.51	61.7 ± 10.5	3.36	2.84			
	COc1cc(/C=C/C(C)=O)ccc1O [(12)]	38 ± 6.12	29.9 ± 5.13	51.5 ± 1.2	1.36	1.72			
	O=C(/C=C/c1ccc(O)c(O)c1)OCCc1ccccc1 [CAPE, caffeic acid phenethyl ester]						65.7	93.0	80.4
93	CC(=O)/C=C/c1ccccc1O [Compound (7)]	18.7 ± 0.24	22.4 ± 2.52	61.1 ± 1.95	3.27	2.73			
